Patent US20170202792A1, “METHOD FOR TREATING TAU-ASSOCIATED DISEASES” (NATIONAL TAIWAN NORMAL UNIVERSITY, priority 2016, published 2017)

How the values were obtained:
[1] = system: p-tau (Ser202, Thr231 and Ser396); experiment: Western blot of phosphorylated tau in tauRD-DsRed SH-SY5Y cells; type: cell-based, human; settings: untreated = 100%
Procedure: Western blotting analysis was applied for examining the expressions of HSPB1 and GRP78, the method was as follows: total proteins were extracted using RIPA buffer, which comprised 50 mM Tris-HCl, 150 mM NaCl, 1 mM EDTA, 1 mM EGTA, 0.1% SDS, 0.5% sodium deoxycholate, 1% Triton X-100, and a protease inhibitor cocktail (Calbiochem). […] of total proteins were separated on 10% SDS-PAGE gels and blotted onto nitrocellulose membrane which were stained (4° C., overnight) with antibodies against DsRed (1:500; Santa Cruz), HSPB1 (1:500; Santa Cruz), and GRP78 (1:200; Santa Cruz). Next, immunoreactive bands were detected using horseradish peroxidase-conjugated goat anti-mouse, goat anti-rabbit, or donkey anti-goat IgG antibodies (1:5000; GeneTex) and chemiluminescent substrate (Millipore).
The methods of cell culture and western blot analysis are similar to that described above, except that the antibodies against GSK-3β (total and p-Ser9) (1:1000; Cell Signaling), total tau (1:500; Dako), p-tau (Ser202) (1:500; AnaSpec), p-tau (Thr231 and Ser396) (1:1000; Invitrogen), [3-actin (1:5000; Millipore), or GAPDH (1:2000; MDBio) were used herein for evaluation of the expression levels thereof in the cells.

[2] = system: 3×Tg-AD mice; experiment: Morris water maze (MWM) test; type: in vivo, mouse
Procedure: (§1) Hyperglycemia was induced by streptozotocin (STZ) to accelerated Alzheimer's disease progression of 6-month-old male transgenic 3×Tg−AD mice. Half of the 3×Tg−AD mice (n=30) received STZ (100 mg/kg) intraperitoneal injection at days 1, 2, 8, and 9 respectively as the high blood glucose group (HBG); another half of the 3×Tg-AD mice (n=30) received sodium citrate (0.1 M) at the same time points as the normal blood glucose group (NBG). Then, HBG and NBG were divided into two groups respectively to give four groups such as NBG-compound (I), HBG-compound (I), NBG-DMSO, and HBG-DMSO with n=15 in each group; wherein 0.25 mg/kg of compound (I) (in 30 μL) were intraperitoneal injected into those mice of NBG-compound (I) and HBG-compound (I) groups daily since day 14 for 28 days, and 30 μL of DMSO solvent were intraperitoneal injected into those mice of NBG-DMSO and HBG-DMSO groups daily since day 14 for 28 days. Both mouse body weight (BW) and blood glucose (BG) were monitored every week.
Morris water maze (MWM) was conducted to evaluate the learning and memory ability of the mice at days 34-42. At first, during the 4 training days, each of the mice received four trails a day, wherein each of the mice was released into the water from a starting point that randomly varied between trials, and the time required for each of the mice to find the hidden platform to escape from the water maze (escape latency) was calculated, and the curve of 4 training days represent the learning profile of mice. 24 hours after the final training trial, the mice underwent three testing trials to determine the time required to find the hidden platform as a measure of spatial learning acquisition. The probe trials were conducted 48 hours after the end of the testing trials to evaluate the long-term spatial memory, wherein each mouse was allowed to swim freely in a pool without platform for 60 seconds, and the duration of the mouse spent in the target quadrant (where the platform was originally disposed) was measured to represent the degree of memory consolidation after learning.

[3] = Body weight monitoring in STZ 3×Tg-AD mice; type: in vivo, mouse; settings: 0.25 mg/kg i.p. daily 28 days; NBG vs HBG groups treated with compound (I)
Procedure: as §1

[4] = system: IL-6 and TNF-α; experiment: Content analysis of IL-6 and TNF-α in serum (ELISA); type: in vivo, mouse; settings: both normal and high blood glucose groups; 0.25 mg/kg i.p. daily
Procedure: Hyperglycemia was induced by streptozotocin (STZ) to accelerated Alzheimer's disease progression of 6-month-old male transgenic 3×Tg−AD mice. Half of the 3×Tg−AD mice (n=30) received STZ (100 mg/kg) intraperitoneal injection at days 1, 2, 8, and 9 respectively as the high blood glucose group (HBG); another half of the 3×Tg-AD mice (n=30) received sodium citrate (0.1 M) at the same time points as the normal blood glucose group (NBG). […] Both mouse body weight (BW) and blood glucose (BG) were monitored every week.
Additionally, the peripheral inflammatory cytokine in four groups of mice were evaluated. The collected blood was centrifuged (2000×g) for 20 minutes at 4° C., and the supernatant was analyzed using mouse TNF-α ELISA kit and IL-6 ELISA kit (R&D system). OD450 nm absorbance was detected by ELISA reader, and the concentration of IL-6 and of TNF-α were obtained by interpolating the standard curve and shown in FIG. 11, wherein *p<0.05. […]

[5] = system: cholinergic, serotonergic and noradrenergic neurons; experiment: Immunohistochemical staining in brain region (ChAT, TH, 5HT neurons); type: in vivo, mouse; settings: for 5HT (serotonergic neurons in the Raphe nucleus) quantification / TH (noradrenergic neurons in the LC region) quantification: 0.25 mg/kg i.p. daily 28 days
Procedure: as §1
Neurons including the cholinergic neurons in the medial septum (MS), vertical diagonal band of Broca (VDB), and horizontal diagonal band of Broca (HDB) regions; the serotonergic neurons in the Raphe nucleus; and the noradrenergic neurons in the locus coeruleus (LC) region, which are related to cognition in the other brain regions were examined.
After the brain tissue of the mice were fixed and dehydrated, the tissue was cryosectioned (30 μm). The cryosections were then washed with phosphate buffered saline (PBS) for three times. After the optimal cutting temperature compound (OCT) was removed, 3% H2O2was used to remove the endogenous peroxidase, and the cryosections were blocked by the blocking solution for 1 hour to reduce non-specific antigen reactions. The primary antibodies (ChAT, TH, 5HT) were added and reacted for 12 hours, the secondary antibody (1:200 dilution in blocking solution, Vecter) was added and reacted for 1 hour, and then, the avidin-biotin complex was added and reacted for 1 hour. Finally, DAB-kit was used for coloring. All the stained sections were attached to the slides, dried, dehydrated, and mounted for imaging and quantification (Image Pro Plus).

[6] = system: transgenic flies overexpressing tau protein driven by Eq-gal4 (Eq>tau); experiment: In vivo tau toxicity, notal bristle number of flies; parameters: species or system Drosophila; settings: 25 μM and 50 μM of compound (I) vs DMSO
Procedure: 10 Eq-ga14 flies were treated with DMSO as the control group, and transgenic flies overexpressing tau protein driven by Eq-ga14 (Eq>tau) were treated with DMSO, 25 μM of compound (I), and 50 μM of compound (I) respectively in each group of 10 flies. The number of notal bristle of the flies was then calculated.

In the case of `CCCCC/C=C\C/C=C\C/C=C\C/C=C\CCCC(=O)Nc1ccc(O)cc1` [compound (I), (5Z, 8Z, 11Z,14Z)-N-(4-Hydroxyphenyl)icosa-5 ,8 , 11,14-tetraen amide], the “phosphorylated tau Ser202 level relative to untreated cells” value [1] is reported as 32%-42%, the “phosphorylated tau Ser396 level relative to untreated cells” value [1] is reported as 54%-78% and the “phosphorylated tau Thr231 level relative to untreated cells” value [1] is reported as 37%-48%. The “duration in target quadrant of probe trial in MWM (long-term memory)” value ([2]; 0.25 mg/kg i.p. daily) was “ameliorate the long-term memory damages”, the “swimming velocity in MWM” value ([2]; 4 training days, 0.25 mg/kg i.p. daily, among 4 groups) was “no difference” and the “escape latency of 4 training days in MWM (learning ability)” value ([2]; high blood glucose groups, 0.25 mg/kg i.p. daily vs DMSO) was “better learning ability”. For the same compound, the “body weight (BW)” value [3] was “no significant difference in BW”, the “IL-6 level in serum” value [4] was “down-regulated” and the “TNF-α level in serum” value [4] was “down-regulated”. The “5HT (serotonergic neurons in the Raphe nucleus) quantification” value ([5]; HBG 3×Tg-AD mice) was 33.00 ± 1.78↑↑↑, the “TH (noradrenergic neurons in the LC region) quantification” value ([5]; HBG 3×Tg-AD mice) was 56.89 ± 4.45↓ and the “5HT (serotonergic neurons in the Raphe nucleus) quantification” value ([5]; NBG 3×Tg-AD mice) was 31.80 ± 2.04. For the same compound, the “TH (noradrenergic neurons in the LC region) quantification” value ([5]; NBG 3×Tg-AD mice) was 75.75 ± 3.12, the “cholinergic neurons (ChAT; MS, VDB, HDB regions)” value ([5]; data not shown, among groups) was “no difference was identified” and the “number of notal bristle” value [6] was “effectively reduced the notal bristle loss”.
